Here are results for 2 compounds from patent publication US11202748B2, “Photoprotective compositions containing malassezia-derived compounds and/or chemical analogs thereof” (Versicolor Technologies, LLC, priority 2018, dated 2021).

Test [1] deals with arylhydrocarbon receptor (AhR). The note with it: cited from earlier work.
Test [2] concerns MeWo, WM115 and B16F1 cell lines. To be noted: expected result.
Method: The cell lines MeWo (ATCC® HTB-65™), WM115 (ATCC® CRL-1675) and B16F1 (ATCC® CRL-6323) are maintained in the following culture media: culture medium for MeWo and B16F1: DMEM supplemented with 10% FBS; culture medium for WM115: RPMI 1640 supplemented with 10% FBS.
Cells are harvested and the cell number determined using a Countess Cell Counter. The cells are diluted with culture medium to the desired density. The final cell density may be, for example, 4,000 cells/well for 6 hr and 24 hr treatment, and 2,000 cells/well for 48 hr and 72 hr treatment. For the Annexin V assay, 384-well clear-bottom plates (Corning 3712) are employed, whereas 384-well solid white-bottom plates (Corning 3570) are used for the Caspase-Glo assays. All plates are covered with a lid and placed at 37° C. and 5% CO2 overnight for cell attachment.
Test compounds are dissolved in DMSO to 30 mM stock. 10-fold dilutions are performed to generate 3 mM and 0.3 mM concentrations. […]
For the Annexin V assay, plates are removed from the incubator and culture media is removed. […] Plates are read using ImageXpress Nano.
For the Caspase-Glo assay, plates are removed from the incubator and equilibrated at room temperature for 15 minutes. […] Plates are incubated at room temperature for 15 minutes and read using EnSpire™ plate reader. Fold induction is calculated according to the following formula: Fold induction=LumSample/LumNC.
Test [3] deals with B16 melanocytes. To be noted: expected result.
Method: Plating media will include DMEM without L-glutamine, FBS, penicillin/streptomycin, and L-glutamine. Assay media will include DMEM without phenol red and L-glutamine, FBS, penicillin/streptomycin, L-glutamine, and aMSH. Other reagents will include Kojic Acid, DMSO, and MTT. Cells tested will be B16 cells (ATCC CRL-6475).
B16 Melanocytes are cultured until 70% confluent and harvested. Cells are seeded in 96-well plates at a density of 4000 cells/well and are allowed to attach overnight. The following day, test articles and controls are diluted in B16 Assay media. Overnight media is aspirated and 200 ul of test articles and controls are applied. Cells are incubated at 37° C. and 10% CO2 for 72 hours. Following 72-hour incubation, absorbance is read at 540 nm. Media is removed and replaced with 100 ul of plating media containing 1 mg/mL MTT and incubated for 2 hours at 37° C. and 10% CO2. MTT media is removed and replaced with 200 ul of 95% Ethanol/5% Isopropanol and allowed to shake for 15 minutes. MTT absorbance then is read at 570 nm.
B16 Melanocytes are cultured until 70% confluent and harvested. Cells are seeded in 96-well plates at a density of 4000 cells/well and are allowed to attach overnight. The following day, test articles, test compositions, and controls are diluted in B16 Assay media. […] Following 72-hour incubation, absorbance is read at 540 nm. […] MTT absorbance then is read at 570 nm.
Test [4] deals with arylhydrocarbon receptor (AhR) (Homo sapiens, UniProt P35869). The note with it: expected result. Here is the method: Cultivated cells are rinsed with 5 mL PBS. […] Trypsin is inactivated by adding excess serum-containing media.
Chain of arylhydrocarbon receptor (AhR) (Homo sapiens, UniProt P35869) (P35869 11-848): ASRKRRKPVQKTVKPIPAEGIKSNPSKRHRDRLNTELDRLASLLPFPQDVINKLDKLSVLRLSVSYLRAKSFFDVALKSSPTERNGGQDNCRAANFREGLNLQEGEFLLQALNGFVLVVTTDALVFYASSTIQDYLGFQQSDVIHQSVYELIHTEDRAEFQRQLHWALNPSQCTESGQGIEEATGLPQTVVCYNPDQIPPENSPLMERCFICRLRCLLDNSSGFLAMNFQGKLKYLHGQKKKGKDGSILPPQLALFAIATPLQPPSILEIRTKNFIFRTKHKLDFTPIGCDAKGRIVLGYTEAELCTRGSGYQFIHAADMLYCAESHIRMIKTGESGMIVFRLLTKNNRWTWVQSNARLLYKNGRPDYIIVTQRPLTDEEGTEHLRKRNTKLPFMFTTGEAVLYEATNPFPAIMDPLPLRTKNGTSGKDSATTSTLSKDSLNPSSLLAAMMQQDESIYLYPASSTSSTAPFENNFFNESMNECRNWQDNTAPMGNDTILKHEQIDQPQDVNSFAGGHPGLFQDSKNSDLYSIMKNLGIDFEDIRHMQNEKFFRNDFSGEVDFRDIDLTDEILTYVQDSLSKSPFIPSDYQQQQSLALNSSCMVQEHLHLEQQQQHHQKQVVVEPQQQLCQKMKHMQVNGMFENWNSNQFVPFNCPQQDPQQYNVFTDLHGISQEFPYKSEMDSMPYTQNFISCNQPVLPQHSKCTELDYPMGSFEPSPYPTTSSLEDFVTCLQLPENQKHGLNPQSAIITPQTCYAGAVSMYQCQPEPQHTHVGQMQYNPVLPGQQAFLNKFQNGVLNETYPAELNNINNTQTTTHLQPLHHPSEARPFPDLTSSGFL
Cells are resuspended in seeding media at a proper density.
Compound solutions are transferred into the assay plate using Echo550. The plate is then placed back into the incubator for compound treatment.
Afterward, stock solutions of test compounds, test compositions, and omeprazole positive control are prepared. Compound and compositions solutions are transferred into the assay plate using Echo550. The plate is then placed back into the incubator for compound/composition treatment.

For test [5] the following is noted: expected result.
Method: For the CellTiter-Glo assay, test compounds are prepared in 10 mM DMSO solution. Compounds are serially diluted into 12 concentrations. 40 uL of cells from a 100,000 cell/mL suspension are dispensed into each well of a 384-well plate (Corning 3570). Plates are incubated overnight at 37° C., 5% CO2, and 95% humidity. Test compounds are added, with DMSO as vehicle control. Plates are incubated at 37° C., 5% CO2, and 95% humidity for 6, 24, or 48 hours, and 40 uL of CellTiter-Glo reagent is added to the wells to assess cell viability.

Turning to `O=C1Nc2ccccc2/C1=C1/Nc2ccccc2C1=O` [Indirubin], the AhR agonist activity result in test [1] is on record as “known agonist”. Also, the “cell death / apoptosis induction” value in test [2] is “will induce cell death”. For the same compound, in test [3], the melanogenesis inhibition result is recorded as “will inhibit melanogenesis”. The AhR activity modulation entry in test [4] is given as “will modulate AhR activity”. Also, in test [5], the “cell death (cell viability)” value is given as “will induce cell death”.
Consider `O=Cc1c(Cc2c[nH]c3ccccc23)[nH]c2ccccc12` [Malassezin, 2-(1H-indol-3-ylmethyl)-1H-indole-3-carbaldehyde], for which the AhR agonist activity result in test [1] is “known agonist”.
